Measured values as given in US11364211B2, “Methods for selecting phosphatase selective and non-selective phosphatase inhibitors” (MEDICAL RESEARCH COUNCIL, priority 2015, dated 2022).
Entries after “also recorded” stand apart in the source; their conditions may differ.

Columns and labels:
PPP1R15A-PP1 complex = target: T1, PPP1R15A-PP1 complex (Homo sapiens, UniProt O75807); assay: SPR steady-state binding to R15A-PP1c holophosphatase on streptavidin chip
T1 construct: the cDNAs encoding amino acids 325-636 of PPP1R15A; made in house; host or cells: R15A fragment: E. coli BL21-Gold; BAP-PP1γ: Sf9 insect cells (baculovirus)
T1 sequence (O75807 325-636): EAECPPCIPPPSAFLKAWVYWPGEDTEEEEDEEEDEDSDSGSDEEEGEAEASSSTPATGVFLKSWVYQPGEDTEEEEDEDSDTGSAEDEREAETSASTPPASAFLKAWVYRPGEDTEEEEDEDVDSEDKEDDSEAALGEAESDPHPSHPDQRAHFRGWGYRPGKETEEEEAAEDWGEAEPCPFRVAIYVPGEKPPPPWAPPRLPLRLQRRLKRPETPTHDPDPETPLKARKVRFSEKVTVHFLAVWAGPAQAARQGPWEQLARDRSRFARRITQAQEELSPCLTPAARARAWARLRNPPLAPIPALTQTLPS
T1 sequence (P36873 whole entry partner, the tested form may be a part): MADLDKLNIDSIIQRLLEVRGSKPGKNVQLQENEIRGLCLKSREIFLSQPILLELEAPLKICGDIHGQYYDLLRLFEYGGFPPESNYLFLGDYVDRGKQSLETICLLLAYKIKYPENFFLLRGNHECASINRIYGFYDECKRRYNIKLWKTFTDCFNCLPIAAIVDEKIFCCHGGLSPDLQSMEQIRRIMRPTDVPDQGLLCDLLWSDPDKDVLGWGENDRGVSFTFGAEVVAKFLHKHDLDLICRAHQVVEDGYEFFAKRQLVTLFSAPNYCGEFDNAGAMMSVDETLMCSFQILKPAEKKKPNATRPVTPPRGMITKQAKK
Experimental: The streptavidin coated surface was activated by 1 min injection with a solution of 50 mM NaOH and 1 M NaCl. Biotin-PP1 was diluted in the running buffer (50 mM Tris pH 7.5, 100 mM NaCl, 0.1 mM EGTA, 1 mM MnCl2, 0.05% Tween 20) and injected at approximately 300 nM concentration directly to streptavidin coated surface for 100 sec or to reach immobilization level of biotin-PP1 corresponding to ˜7000 RU. A blank immobilization was performed for one of the SA sensor chip surface to use as a reference.
With minor deviations, the same procedure and conditions were used in all binding experiments. Small molecules were stored as 50 mM stock solutions in 100% DMSO. Prior to determining binding constants, serial dilutions of either 12 or 8 concentrations of the compounds were prepared in the running buffer in a 96-well plate. […] Then, without regenerating the surface, the compound dilution series was injected onto the surface of the chip Sensorgrams were analyzed using the Biacore T200 evaluation software and the binding constants determined based on a steady-state model. Kinetic experiments are carried out using different concentrations of the compound and their respective equilibrium binding levels determined.
Surface Plasmon Resonance (SPR) was used to measure the binding affinity of compounds to the PPP1R15A/B-PP1 phosphatase complex. Biotin acceptor peptide (BAP) was fused to the N-terminus of PP1γ, which enables the biotinylation of the BAP-tagged protein in Sf9 insect cells. After purification the BAP-PP1γ protein was captured on a streptavidin sensor chip (SA-chip, GE healthcare) to a response level of ˜5.000 RU. Using controlled biotinylation enables orientated and uniform immobilization on the sensor chip surface. The PP1γ was then used to capture PPP1R15A/B and form a holophosphatase complex on the surface of the streptavidin chip. This complex can then be used to test binding of compounds. 10 μM PPP1R15A/B protein concentration was used to form the holophosphatase complex during a 80 s injection. […] After the concentration series (8 or 12 concentrations) is completed the surface is regenerated with 3 M NaCl and we can capture R15A/B again to form a fresh holophosphatase complex to measure a binding of another compound concentration series. Analysing the level of equilibrium binding as a function of concentration gives interaction affinities or steady-state binding affinity (KD).
The streptavidin coated surface was activated by 1 minute injection with a solution of 50 mM NaOH and 1 M NaCl three times at a flow rate of 10 μl/min. bio-GBZ or bio-PP1c was diluted in the running buffer (50 mM Tris pH 7.5, 100 mM NaCl, 0.1 mM EGTA, 0.05% Tween 20, 0.1% DMSO) and injected at approximately 300 nM concentration at a flow rate of 10 μl/min directly to streptavidin coated surface to reach immobilization level of bio-GBZ or bio-PP1c corresponding to ˜200 and 6000 RU, respectively. A blank immobilization was performed for one of the SA sensor chip surface to use as a reference.
With minor deviations, the same procedure and conditions were used in all binding experiments. Small molecules were stored as 50 mM stock solutions in 100% DMSO. Prior to determining binding constants, serial dilutions of either 12 or 8 concentrations of the compounds were prepared in the running buffer in a 96-well plate. […] This was followed by 1 minute stabilization period, to wash off any unspecific binding. […]

PPP1R15A = assay: Induction of PPP1R15A expression in cells (immunoblot); type: cell-based, human; conditions: absence of stress
Experimental: For immunoblots, HeLa cells (80,000 cells/ml) were plated in 12-well plates 24 hours before each experiment. Immediately after the indicated treatments, cells were lysed in 75 μl Laemmli Buffer, boiled at 95° C. for 5 minutes and sonicated. Proteins were separated and analysed as described (Tsaytler et al., Science, 332, 91-94, 2011) with the following antibodies: phospho-elf2α [pS52] and PPP1R15A/GADD34 (10449-1-AP; ProteinTech Group, 1/1000 dilution).
(§1) Cells (90,000 cells/ml) were plated in a 24-well plate and treated as indicated. At the end of treatment cells were lysed in 150 μl Laemmli Buffer. Lysates were boiled at 95° C. for 5 minutes, sonicated and resolved on 4-12% Bolt Bis-Tris Plus Gels (Thermo Fisher Scientific). Proteins were transferred to the nitrocellulose membrane using the iBlot 2 system (Thermo Fisher Scientific) and analysed using the following antibodies: e-IF2α-P (44-728G, Thermo Fisher Scientific, 1:1000), e-IF2α (ab5369, Abcam, 1:1000), tubulin (T5168, Sigma-Aldrich, 1:4000), BiP (610978, BD Biosciences Pharmingen, 1:1000), ATF4 (sc-200, Santa Cruz Biotechnology, 1:500), Ppp1r15a (10449-1-AP, Proteintech, 1:1000) and Ppp1r15b (14634-1-AP, Proteintech, 1:1000). Proteins were visualized using ECL Prime (GE Healthcare).

[1] = test system: eIF2α phosphorylation in MEFs; assay: eIF2α phosphorylation in r15a mut/mut or r15b mut/mut MEFs (immunoblot); type: cell-based, mouse
Experimental: HeLa cells were maintained in Dulbecco's Modified Eagle's Media (DMEM) supplemented with penicillin, streptomycin, glutamine and 10% fetal bovine serum (FBS). Ppp1r15a −/− and Ppp1r15b −/− MEF cells were maintained in DMEM supplemented with penicillin, streptomycin, glutamine, 55 μM β-mercaptoethanol, 1X non-essential amino acids (Sigma) and 10% FBS.
as §1

[2] = Toxicity and weight in mice treated for 2 weeks; type: in vivo, mouse; set-up: toxicity / clinical signs: dose or concentration left out as unconfirmed
Experimental: For studying the effect of a compound of Example 1 on weight, C3H/B6 mice were gavaged orally once a day with compounds of Example 1 and mice weight was recorded daily for 2 weeks.
Mice were treated with Example 1 and monitored closely to detect any clinical signs. […] This establishes that PPP1R15B inhibition is not toxic. This was surprising and unanticipated as prior to this study one would have speculated that PPP1R15B inhibitors would be so deleterious that they would have no therapeutic potential.

binding to R15A-PP1c (in words) (PPP1R15A-PP1 complex) | Kd (PPP1R15A-PP1 complex; steady-state affinity, listed as GBZ) | SMILES | expression of PPP1R15A (R15A) in cells (PPP1R15A) | expression of PPP1R15A (R15A) in cells (PPP1R15A; listed as TST3) | eIF2α phosphorylation upon inactivation of R15A ([1]; r15a mut/mut MEFs) | effect on eIF2α phosphorylation in r15b knock out cells ([1]; r15b mut/mut MEFs, 10 μM, listed as TST3) | toxicity / clinical signs ([2]; once a day for 2 weeks) | weight gain ([2]; up to 10 mg/mg once a day for 2 weeks)
strongly bound | 122 nM | N=C(N)N/N=C/c1c(Cl)cccc1Cl [Guanabenz, reference compound] |  |  |  |  |  | 
 |  | [H]/N=C(\N)NN=Cc1cccc(Cl)c1Cl [Example 1, (E)-2-(2,3-dichlorobenzylidene)hydrazine-1-carboximidamide] | induce PPP1R15A; also recorded: induces expression of R15A | induced expression | rendered persistent | activity is abolished | undistinguishable from mice treated with placebo; also recorded: not toxic | gained weight normally
